# Assay results as given in patent US8937092B2, “Aryl or N-heteroaryl substituted methanesulfonamide derivatives as vanilloid receptor ligands” (Gruenenthal GmbH, priority 2011, dated 2015).
# Biological target: vanilloid receptor 1 (VR1/TRPV1 receptor) (Homo sapiens, UniProt Q8NER1)
# Assay: Functional FLIPR Ca2+ influx assay on vanilloid receptor 1, capsaicin (Cap) stimulus
# Type: cell-based
# Conditions: Ki from IC50 by Cheng-Prusoff, read-out: (f) Ki (human being) [nM], Cap
# Method: Furthermore, preference may be given to compounds according to the invention that cause a 50 percent displacement of capsaicin, which is present at a concentration of 100 nM, in a FLIPR assay with CHO K1 cells which were transfected with the human VR1 gene at a concentration of less than 2,000 nM, preferably less than 1,000 nM, particularly preferably less than 300 nM, most particularly preferably less than 100 nM, even more preferably less than 75 nM, additionally preferably less than 50 nM, most preferably less than 10 nM.
# In the process, the Ca^2+ influx is quantified in the FLIPR assay with the aid of a Ca^2+-sensitive dye (type Fluo-4, Molecular Probes Europe BV, Leiden, the Netherlands) in a fluorescent imaging plate reader (FLIPR, Molecular Devices, Sunnyvale, USA), as described hereinafter.
# Pharmacological Methods I. Functional Testing Carried Out on the Vanilloid Receptor 1 (VRI/TRPV1 Receptor) […]
# The number of cells in the suspension is set to 3×10^5 per mL and 150 μL of this suspension are in each case introduced into a recess in the cell culture plates coated as described hereinbefore. In the incubator the plates are left for two to three days at 37° C., 5% by volume of CO2 and 95% relative humidity. Subsequently, the cells are loaded with 2 μM of Fluo-4 and 0.01% by volume of Pluronic F127 (Molecular Probes Europe BV, Leiden, the Netherlands) in HBSS buffer (Hank's buffered saline solution, Gibco Invitrogen GmbH, Karlsruhe, Germany) for 30 min at 37° C., washed 3 times with HBSS buffer and after further incubation for 15 minutes at room temperature used for Ca^2+ measurement in a FLIPR assay. The Ca^2+-dependent fluorescence is in this case measured before and after the addition of substances (λex=488 nm, λem=540 nm). Quantification is carried out by measuring the highest fluorescence intensity (FC, fluorescence counts) over time.
# The FLIPR protocol consists of 2 substance additions. First the compounds to be tested (10 μM) are pipetted onto the cells and the Ca^2+ influx is compared with the control (capsaicin 10 μM). This provides the result in % activation based on the Ca^2+ signal after the addition of 10 μM of capsaicin (CP). After 5 minutes' incubation, 100 nM of capsaicin are applied and the Ca^2+ influx is also determined.
# Desensitising agonists and antagonists lead to suppression of the Ca^2+ influx. The % inhibition is calculated compared to the maximum achievable inhibition with 10 μM of capsazepine.
# Triple analyses (n=3) are carried out and repeated in at least 3 independent experiments (N=4).
# Starting from the percentage displacement caused by different concentrations of the compounds to be tested of general formula I, IC50 inhibitory concentrations which cause a 50-percent displacement of capsaicin were calculated. K, values for the test substances were obtained by conversion by means of the Cheng-Prusoff equation (Cheng, Prusoff; Biochem. Pharmacol. 22, 3099-3108, 1973).
# The affinity of the compounds according to the invention for the vanilloid receptor 1 (VR1/TRPV1 receptor) was determined as described herein before (pharmacological method I).
# The value after the “@” symbol indicates the concentration at which the inhibition (as a percentage) was respectively determined.
row,Molecule,Ki [nM]
1,"CC(C(=O)NCc1ccc(C(F)(F)F)nc1-c1cccc(C#N)c1)c1ccc(CNS(C)(=O)=O)c(F)c1 (stereo not drawn) [Example 57, N-((2-(3-cyanophenyl)-6-(trifluoromethyl)pyridin-3-yl)methyl)-2-(3-fluoro-4-(methylsulfonamidomethyl)phenyl)propanamide]",74
2,"CC(C(=O)NCc1ccc(C(F)(F)F)nc1-c1ccc(C#N)cc1)c1ccc(CNS(C)(=O)=O)c(F)c1 (stereo not drawn) [Example 58, N-((2-(4-cyanophenyl)-6-(trifluoromethyl)pyridin-3-yl)methyl)-2-(3-fluoro-4-(methylsulfonamidomethyl)phenyl)propanamide]",45
3,"COc1ccccc1-c1nc(C(F)(F)F)ccc1CNC(=O)C(C)c1ccc(CNS(C)(=O)=O)c(F)c1 (stereo not drawn) [Example 60, 2-(3-fluoro-4-(methylsulfonamidomethyl)phenyl)-N-((2-(2-methoxyphenyl)-6-(trifluoromethyl)pyridin-3-yl)methyl)propanamide]",43
4,"COc1cccc(-c2nc(C(F)(F)F)ccc2CNC(=O)C(C)c2ccc(CNS(C)(=O)=O)c(F)c2)c1 (stereo not drawn) [Example 61, 2-(3-fluoro-4-(methylsulfonamidomethyl)phenyl)-N-((2-(3-methoxyphenyl)-6-(trifluoromethyl)pyridin-3-yl)methyl)propanamide]",53
5,"COc1ccc(-c2nc(C(F)(F)F)ccc2CNC(=O)C(C)c2ccc(CNS(C)(=O)=O)c(F)c2)cc1 (stereo not drawn) [Example 62, 2-(3-fluoro-4-(methylsulfonamidomethyl)phenyl)-N-((2-(4-methoxyphenyl)-6-(trifluoromethyl)pyridin-3-yl)methyl)propanamide]",59
6,"CCOc1cccc(-c2nc(C(F)(F)F)ccc2CNC(=O)C(C)c2ccc(CNS(C)(=O)=O)c(F)c2)c1 (stereo not drawn) [Example 64, N-((2-(3-ethoxyphenyl)-6-(trifluoromethyl)pyridin-3-yl)methyl)-2-(3-fluoro-4-(methylsulfonamidomethyl)phenyl)propanamide]",28
7,"COc1ccc(-c2nc(C(F)(F)F)ccc2CNC(=O)C(C)c2ccc(CNS(C)(=O)=O)c(F)c2)cn1 (stereo not drawn) [Example 68, 2-(3-fluoro-4-(methylsulfonamidomethyl)phenyl)-N-((6′-methoxy-6-(trifluoromethyl)-2,3′-bipyridin-3-yl)methyl)propanamide]",72
8,"CC(C(=O)NCc1ccc(C(F)(F)F)nc1-c1cncc(Cl)c1)c1ccc(CNS(C)(=O)=O)c(F)c1 (stereo not drawn) [Example 73, N-((5′-chloro-6-(trifluoromethyl)-2,3′-bipyridin-3-yl)methyl)-2-(3-fluoro-4-(methylsulfonamidomethyl)phenyl)propanamide]",24
9,"Cc1cccc(-c2nc(C(F)(F)F)ccc2CNC(=O)C(C)c2ccc(CNS(C)(=O)=O)c(Cl)c2)c1 (stereo not drawn) [Example 77, 2-(3-chloro-4-(methylsulfonamidomethyl)phenyl)-N-((2-m-tolyl-6-(trifluoromethyl)pyridin-3-yl)methyl)propanamide]",3
10,"COc1cc(C(C)C(=O)NCc2ccc(C(F)(F)F)nc2-c2cccc(C)c2)ccc1CNS(C)(=O)=O (stereo not drawn) [Example 78, 2-(3-methoxy-4-(methylsulfonamidomethyl)phenyl)-N-((2-m-tolyl-6-(trifluoromethyl)pyridin-3-yl)methyl)propanamide]",73
11,"COc1cc(NC(=O)NCc2ccc(C(F)(F)F)nc2-c2cccc(C)c2)ccc1CNS(C)(=O)=O [Example 80, N-(2-methoxy-4-(3-((2-m-tolyl-6-(trifluoromethyl)pyridin-3-yl)methyl)ureido)benzyl)methanesulfonamide]",68
12,"Cc1cccc(-c2nc(C(F)(F)F)ccc2CNC(=O)Nc2ccc(CNS(C)(=O)=O)c(C)c2)c1 [Example 81, N-(2-methyl-4-(3-((2-m-tolyl-6-(trifluoromethyl)pyridin-3-yl)methyl)ureido)benzyl)methanesulfonamide]",7
13,"CCS(=O)(=O)NCc1ccc(NC(=O)NCc2ccc(C(F)(F)F)nc2-c2cccc(C)c2)cc1 [Example 82, N-(4-(3-((2-m-tolyl-6-(trifluoromethyl)pyridin-3-yl)methyl)ureido)benzyl)ethanesulfonamide]",23
14,"CCS(=O)(=O)NCc1ccc(C(C)C(=O)NCc2ccc(C(F)(F)F)nc2-c2cccc(C)c2)cc1F (stereo not drawn) [Example 83, 2-(4-(ethylsulfonamidomethyl)-3-fluorophenyl)-N-((2-m-tolyl-6-(trifluoromethyl)pyridin-3-yl)methyl)propanamide]",74
15,"Cc1cccc(-c2nc(C(F)(F)F)ccc2CNC(=O)Nc2ccc(CNS(N)(=O)=O)cc2)c1 [Example 84, 1-{[2-m-tolyll-6-(trifluoromethyl)pyridin-3-yl]methyl}-3-{4-[(sulfamoylamino)methyl]phenyl}urea]",9
16,"Cc1cccc(-c2nc(C(F)(F)F)ccc2CNC(=O)C(C)c2ccc(CNS(N)(=O)=O)c(F)c2)c1 (stereo not drawn) [Example 85, 2-(3-fluoro-4-((sulfamoylamino)methyl)phenyl)-N-((2-m-tolyl-6-(trifluoromethyl)pyridin-3-yl)methyl)propanamide]",3
17,"Cc1cccc(-c2nc(C(F)(F)F)ccc2CNC(=O)Nc2ccc(CNS(N)(=O)=O)c(F)c2)c1 [Example 86, 1-{3-fluoro-4-[(sulfamoylamino)methyl]phenyl}-3-{[2-m-tolyl-6-(trifluoromethyl)pyridin-3-yl]methyl}urea]",6
18,"Cc1cccc(-c2nc(C(F)(F)F)ccc2CNC(=O)C(C)c2ccc(CNS(N)(=O)=O)cc2)c1 (stereo not drawn) [Example 88, 2-(4-((sulfamoylamino)methyl)phenyl)-N-((2-m-tolyl-6-(trifluoromethyl)pyridin-3-yl)methyl)propanamide]",7

# Same assay, conditions: inhibition at 1 μM
row,Molecule,"(f) inhibition (human being), Cap, @1 μM [%@1 μM]"
1,N-((2-(2-ethoxy-5-methylphenyl)-6-(trifluoromethyl)pyridin-3-yl)methyl)-2-(3-fluoro-4-(methylsulfonamidomethyl)phenyl)propanamide [Example 48],15

# Same assay, conditions: inhibition at 5 μM, read-out: (f) inhibition (human being), Cap, @5 μM
row,Molecule,inhibition at 5 µM [%]
1,"CC(C(=O)NCc1ccc(C(F)(F)F)nc1-c1cccc(O)c1)c1ccc(CNS(C)(=O)=O)c(F)c1 (stereo not drawn) [Example 59, 2-(3-fluoro-4-(methylsulfonamidomethyl)phenyl)-N-((2-(3-hydroxyphenyl)-6-(trifluoromethyl)pyridin-3-yl)methyl)propanamide]",20
2,"CC(C(=O)NCc1ccc(C(F)(F)F)nc1-c1cccnc1)c1ccc(CNS(C)(=O)=O)c(F)c1 (stereo not drawn) [Example 67, 2-(3-fluoro-4-(methylsulfonamidomethyl)phenyl)-N-((6-(trifluoromethyl)-2,3′-bipyridin-3-yl)methyl)propanamide]",15
3,"COc1cncc(-c2nc(C(F)(F)F)ccc2CNC(=O)C(C)c2ccc(CNS(C)(=O)=O)c(F)c2)c1 (stereo not drawn) [Example 69, 2-(3-fluoro-4-(methylsulfonamidomethyl)phenyl)-N-((5′-methoxy-6-(trifluoromethyl)-2,3′-bipyridin-3-yl)methyl)propanamide]",49
4,"Cc1ncccc1-c1nc(C(F)(F)F)ccc1CNC(=O)C(C)c1ccc(CNS(C)(=O)=O)c(F)c1 (stereo not drawn) [Example 71, 2-(3-fluoro-4-(methylsulfonamidomethyl)phenyl)-N-((2′-methyl-6-(trifluoromethyl)-2,3′-bipyridin-3-yl)methyl)propanamide]",19
5,"Cc1ccc(-c2nc(C(F)(F)F)ccc2CNC(=O)C(C)c2ccc(CNS(C)(=O)=O)c(F)c2)cn1 (stereo not drawn) [Example 72, 2-(3-fluoro-4-(methylsulfonamidomethyl)phenyl)-N-((6′-methyl-6-(trifluoromethyl)-2,3′-bipyridin-3-yl)methyl)propanamide]",27
